This is an account of results in patent US9969749B2, “Inhibitors of IRAK4 activity” (MERCK SHARP & DOHME CORP., priority 2014, dated 2018).

The target in the assay is IRAK4 (Homo sapiens (Human), UniProt Q9NWZ3). Briefly: IRAK4 Kinase Assay (IMAP fluorescence polarization). The assay is classed as biochemical. As to conditions: 0.5 nM GST tagged IRAK4, 100 μM ATP, 100 nM fluorescent peptide substrate RP7030, 30 minutes at 25° C. In outline: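 GST-tagged IRAK4 (0.5 nM) phosphorylates 100 nM fluorescent peptide with 100 μM ATP in 10 mM Tris pH 7.2, 1 mM MgCl2, 1 mM DTT, 0.01% Tween 20 for 30 min at 25 °C. Phosphorylation read as IMAP nanoparticle-binding fluorescence polarization after stop reagent.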
IRAK4, sequence (Q9NWZ3 whole entry): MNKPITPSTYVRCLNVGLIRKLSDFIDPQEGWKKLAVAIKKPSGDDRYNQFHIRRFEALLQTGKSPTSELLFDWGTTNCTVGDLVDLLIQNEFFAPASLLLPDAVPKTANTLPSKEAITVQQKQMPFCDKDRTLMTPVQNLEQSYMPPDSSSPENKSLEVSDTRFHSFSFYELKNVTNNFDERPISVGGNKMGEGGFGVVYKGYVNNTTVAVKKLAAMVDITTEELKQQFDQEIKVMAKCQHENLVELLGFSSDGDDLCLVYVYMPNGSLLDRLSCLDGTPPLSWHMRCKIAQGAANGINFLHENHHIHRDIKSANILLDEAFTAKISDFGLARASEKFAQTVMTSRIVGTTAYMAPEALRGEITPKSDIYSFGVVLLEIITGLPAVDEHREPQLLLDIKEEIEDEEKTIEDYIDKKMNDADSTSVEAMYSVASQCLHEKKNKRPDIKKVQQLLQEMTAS
`Fc1cc(-c2ccc3ncnc(N[C@H]4CC[C@H](N5CCOCC5)CC4)c3c2)cnc1F` [Example 2-34, 6-(5,6-difluoropyridin-3-yl)-N-[trans-4-(morpholin-4-yl)cyclohexyl]quinazolin-4-amine] displayed a half-inhibitory concentration (IC50) of 13 nM. The same measure for `FC(F)c1cncc(-c2ccc3ncnc(N[C@H]4CC[C@H](N5CCOCC5)CC4)c3c2)c1` [Example 2-35, 6-[5-(difluoromethyl)pyridin-3-yl]-N-[trans-4-(morpholin-4-yl)cyclohexyl]quinazolin-4-amine]: 37 nM; for `Nc1cc(-c2ccc3ncnc(N[C@H]4CC[C@H](N5CCOCC5)CC4)c3c2)cnc1Cl` [Example 2-36, 6-(5-amino-6-chloropyridin-3-yl)-N-[trans-4-(morpholin-4-yl)cyclohexyl]quinazolin-4-amine]: 10 nM. The same measure for `CN(C)[C@H]1CC[C@H](Nc2ncnc3ccc(-c4cncc(O)c4)cc23)CC1` [Example 3-1, 5-(4-(((Trans)-4-(dimethylamino)cyclohexyl)amino)quinazolin-6-yl)pyridin-3-ol]: 1 nM. In turn, `CN(C)C(=O)c1cccc(-c2ccc3ncnc(N[C@H]4CC[C@H](N5CCOCC5)CC4)c3c2)n1` [Example 4-1, N,N-Dimethyl-6-(4-(((trans)-4-morpholinocyclohexyl)amino)quinazolin-6-yl)picolinamide] came in with an IC50 of 32 nM.

`Oc1cc(-c2ccc3ncnc(N[C@H]4CC[C@H](N5CCC(F)(F)CC5)CC4)c3c2)cnc1F` [Example 5-1, 5-(4-{[Trans-4-(4,4-difluoropiperidin-1-yl)cyclohexyl]amino}quinazolin-6-yl)-2-fluoropyridin-3-ol] came in with an IC50 of less than 0.5 nM. The value for `COC1CN([C@H]2CC[C@H](Nc3ncnc4ccc(-c5cncc(O)c5)cc34)CC2)C1` [Example 5-2, 5-(4-{[trans-4-(3-methoxyazetidin-1-yl)cyclohexyl]amino}quinazolin-6-yl)pyridin-3-ol] was 1 nM; that for `CN(C1CC1)[C@H]1CC[C@H](Nc2ncnc3ccc(-c4cncc(O)c4)cc23)CC1` [Example 5-3, 5-[4-({trans-4-[cyclopropyl(methyl)amino]cyclohexyl}amino)quinazolin-6-yl]pyridin-3-ol] was 1 nM. Take `COCCN[C@H]1CC[C@H](Nc2ncnc3ccc(-c4cncc(O)c4)cc23)CC1` [Example 5-4, 5-[4-({trans-4-[(2-methoxyethyl)amino]cyclohexyl}amino)quinazolin-6-yl]pyridin-3-ol]: the IC50 was less than 0.5 nM. The value for `CN1CCN([C@H]2CC[C@H](Nc3ncnc4ccc(-c5cncc(O)c5)cc34)CC2)CC1` [Example 5-5, 5-(4-{[trans-4-(4-methylpiperazin-1-yl)cyclohexyl]amino}quinazolin-6-yl)pyridin-3-ol] was 1 nM. The value for `C[C@@H]1CN([C@H]2CC[C@H](Nc3ncnc4ccc(-c5cncc(O)c5)cc34)CC2)C[C@H](C)O1` [Example 5-6, 5-[4-({trans-4-[(2R,6S)-2,6-dimethylmorpholin-4-yl]cyclohexyl}amino)quinazolin-6-yl]pyridin-3-ol] was less than 0.5 nM; that for `CNc1cncc(-c2ccc3ncnc(N[C@H]4CC[C@H](N5CCN(S(C)(=O)=O)CC5)CC4)c3c2)c1` [Example 5-7, 6-[5-(methylamino)pyridin-3-yl]-N-{trans-4-[4-(methylsulfonyl)piperazin-1-yl]cyclohexyl}quinazolin-4-amine] was 8 nM; that for `CNc1cncc(-c2ccc3ncnc(N[C@H]4CC[C@H](N5CCC(F)(F)CC5)CC4)c3c2)c1` [Example 5-8, N-[trans-4-(4,4-difluoropiperidin-1-yl)cyclohexyl]-6-[5-(methylamino)pyridin-3-yl]quinazolin-4-amine] was 3 nM. The value for `CNc1cncc(-c2ccc3ncnc(N[C@H]4CC[C@H](N5CCC(F)CC5)CC4)c3c2)c1` [Example 5-9, N-[trans-4-(4-fluoropiperidin-1-yl)cyclohexyl]-6-[5-(methylamino)pyridin-3-yl]quinazolin-4-amine] was 3 nM; that for `CNc1cncc(-c2ccc3ncnc(N[C@H]4CC[C@H](N5CCC(CN6CCOCC6)CC5)CC4)c3c2)c1` [Example 5-10, 6-[5-(methylamino)pyridin-3-yl]-N-{trans-4-[4-(morpholin-4-ylmethyl)piperidin-1-yl]cyclohexyl}quinazolin-4-amine] was 8 nM; that for `CNc1cncc(-c2ccc3ncnc(N[C@H]4CC[C@H](N5CCC[C@H](CN6CCOCC6)C5)CC4)c3c2)c1` [Example 5-11, 6-[5-(methylamino)pyridin-3-yl]-N-{trans-4-[(3R)-3-(morpholin-4-ylmethyl)piperidin-1-yl]cyclohexyl}quinazolin-4-amine] was 2 nM. Compound `CNc1cncc(-c2ccc3ncnc(N[C@H]4CC[C@H](N5CCC[C@@H](CN6CCOCC6)C5)CC4)c3c2)c1` [Example 5-12, 6-[5-(methylamino)pyridin-3-yl]-N-{trans-4-[(3S)-3-(morpholin-4-ylmethyl)piperidin-1-yl]cyclohexyl}quinazolin-4-amine] gave an IC50 of 5 nM. For the compound `Oc1cc(-c2ccc3ncnc(N[C@H]4CC[C@H](N5CCC(F)CC5)CC4)c3c2)cnc1F` [Example 5-13, 2-fluoro-5-(4-{[trans-4-(4-fluoropiperidin-1-yl)cyclohexyl]amino}quinazolin-6-yl)pyridin-3-ol], the IC50 was less than 0.5 nM. The value for `CS(=O)(=O)N1CCN([C@H]2CC[C@H](Nc3ncnc4ccc(-c5cnc(F)c(O)c5)cc34)CC2)CC1` [Example 5-14, 2-fluoro-5-[4-({trans-4-[4-(methylsulfonyl)piperazin-1-yl]cyclohexyl}amino)quinazolin-6-yl]pyridin-3-ol] was 1 nM; that for `Nc1cc(-c2ccc3ncnc(N[C@H]4CC[C@H](N5CCC(F)(F)CC5)CC4)c3c2)cnc1F` [Example 5-15, 6-(5-amino-6-fluoropyridin-3-yl)-N-[trans-4-(4,4-difluoropiperidin-1-yl)cyclohexyl]quinazolin-4-amine] was 2 nM. The value for `Nc1cc(-c2ccc3ncnc(N[C@H]4CC[C@H](N5CCC(F)CC5)CC4)c3c2)cnc1F` [Example 5-16, 6-(5-amino-6-fluoropyridin-3-yl)-N-[trans-4-(4-fluoropiperidin-1-yl)cyclohexyl]quinazolin-4-amine] was 1 nM; that for `Oc1cncc(-c2ccc3ncnc(N[C@H]4CC[C@H](N5CCC(F)(F)CC5)CC4)c3c2)c1` [Example 5-17, 5-(4-{[trans-4-(4,4-difluoropiperidin-1-yl)cyclohexyl]amino}quinazolin-6-yl)pyridin-3-ol] was less than 0.5 nM. The same measure for `Oc1cncc(-c2ccc3ncnc(N[C@H]4CC[C@H](N5CCC(F)CC5)CC4)c3c2)c1` [Example 5-18, 5-(4-{[trans-4-(4-fluoropiperidin-1-yl)cyclohexyl]amino}quinazolin-6-yl)pyridin-3-ol]: less than 0.5 nM; for `C[C@@H]1CN([C@H]2CC[C@H](Nc3ncnc4ccc(-c5cnc(F)c(N)c5)cc34)CC2)C[C@H](C)O1` [Example 5-19, 6-(5-amino-6-fluoropyridin-3-yl)-N-{trans-4-[(2R,6S)-2,6-dimethylmorpholin-4-yl]cyclohexyl}quinazolin-4-amine]: 1 nM.

Usually IC50 stands for the midpoint of a concentration-inhibition curve. Low values mean higher potency, high ones lower potency.
